Reference: the NIST ThermoML archive (doi:10.1016/j.tca.2012.02.002)
Numbers after ± are expanded uncertainties.

Details: 293 K; 101.33 kPa; Crystal; X-ray diffraction

O=P([O-])([O-])[O-].[Er+3] [erbium phosphate]
molar volume: 4.271e-05 ± 5.1e-07 m3/mol
